What is called melting point is the temperature, or range, at which the solid turns liquid. As a reminder, the IC50 is the concentration at which inhibition is half-maximal.

Data on nine compounds can be found in patent publication US20120088772A1, “NOVEL PHARMACEUTICAL COMPOSITION FOR PREVENTION AND/OR TREATMENT OF ATTENTION DEFICIT/HYPERACTIVITY DISORDER” (ASTELLAS PHARMA INC., priority 2009, published 2012).

Data set [1] has as its system spontaneously hypertensive stroke-prone rats (SHRSP). Description: Passive avoidance response test with SHRSP (attention deficit/hyperactivity disorder model). It counts as in vivo, rat. The note with it: for Minimum effective dose: 30 min before test; for Effect on cumulative entry latency of SHRSP: sum of entry latency of 2nd to 5th trial, compared with solvent group. Here is the method: Verification of the therapeutic effect on attention deficit/hyperactivity disorder was carried out using spontaneously hypertensive stroke-prone rats (SHRSP). […] The method of Fox et al. (Fox, G. B. et al., Behay. Brain. Res., 131: 151-161, 2002) was partially modified, and the drug action on attention deficit/hyperactivity disorder was verified using a passive avoidance response test with SHRSP. That is, a solvent (vehicle), or dilutions prepared by diluting methylphenidate, compound (1), compound (2), compound (3), compound (4), and compound (5), with a solvent at multiple concentrations were administered to the rats in each group. Methylphenidate was subcutaneously administered, and compounds (1) to (5) were orally administered. As the solvent, physiological saline was used for methylphenidate and a 0.5% aqueous solution of methylcellulose was used for compounds (1) to (5). After 30 minutes of each drug administration, rats were placed in the bright room of the passive avoidance response measurement apparatus, and the time required for the rat to enter the dark room (entry latency) was measured. The longest time for measurement was 180 seconds. When rats entered in the dark room, a very weak electric current was forced to flow from a foot grid in the dark room. This trial was repeated five times, and the sum of the entry latency from 2nd time to 5th time (cumulative entry latency) was adopted as an indicator of the therapeutic effect on attention deficit/hyperactivity disorder. The test of significance difference was carried out between the solvent administered group and the drug administered groups, using Dunnett's test.

Data set [2] concerns the target T1, BEC1 potassium channel (Homo sapiens, UniProt Q9ULD8).
T1 sequence (Q9ULD8 1-1083): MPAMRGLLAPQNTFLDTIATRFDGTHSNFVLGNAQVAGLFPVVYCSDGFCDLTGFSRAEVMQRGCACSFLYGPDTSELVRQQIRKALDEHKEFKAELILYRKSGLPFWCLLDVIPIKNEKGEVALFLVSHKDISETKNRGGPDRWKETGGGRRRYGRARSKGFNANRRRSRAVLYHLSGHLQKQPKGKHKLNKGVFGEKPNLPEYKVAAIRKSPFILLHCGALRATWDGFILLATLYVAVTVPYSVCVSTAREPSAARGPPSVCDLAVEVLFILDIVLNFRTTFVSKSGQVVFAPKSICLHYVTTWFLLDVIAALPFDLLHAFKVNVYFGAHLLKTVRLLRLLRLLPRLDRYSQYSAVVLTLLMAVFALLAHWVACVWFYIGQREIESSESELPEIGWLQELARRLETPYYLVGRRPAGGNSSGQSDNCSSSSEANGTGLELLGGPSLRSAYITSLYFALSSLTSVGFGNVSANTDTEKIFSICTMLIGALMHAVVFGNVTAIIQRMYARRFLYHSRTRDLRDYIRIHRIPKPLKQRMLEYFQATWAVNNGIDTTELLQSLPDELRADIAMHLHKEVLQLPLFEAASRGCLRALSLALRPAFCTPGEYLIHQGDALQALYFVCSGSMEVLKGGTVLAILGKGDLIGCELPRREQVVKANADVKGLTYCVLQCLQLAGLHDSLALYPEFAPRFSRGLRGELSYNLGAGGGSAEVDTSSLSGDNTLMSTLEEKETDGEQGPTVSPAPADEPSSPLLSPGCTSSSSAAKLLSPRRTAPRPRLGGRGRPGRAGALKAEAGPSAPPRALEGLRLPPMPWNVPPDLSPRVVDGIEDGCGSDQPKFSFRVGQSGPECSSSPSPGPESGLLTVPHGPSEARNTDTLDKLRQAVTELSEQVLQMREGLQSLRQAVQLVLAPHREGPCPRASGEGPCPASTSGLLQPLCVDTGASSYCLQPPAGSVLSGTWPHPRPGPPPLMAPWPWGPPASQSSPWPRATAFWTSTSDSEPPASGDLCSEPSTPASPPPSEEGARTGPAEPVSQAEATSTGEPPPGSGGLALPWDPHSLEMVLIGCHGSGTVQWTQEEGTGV
Description: BEC1 inhibitory activity by 86Rb ion release from BEC1 expressing cells. Also noted: expressed in transfected cells. The note with it: 86Rb release, BEC1 stably expressing CHO (dhfr-deficient) cells, 100 mM KCl stimulation; read-out: BEC1 Inhibittory Activity IC50. It counts as cell-based. How it is done:
Method for measuring BEC1 inhibitory activity of compound utilizing 86Rb ion release amount as indicator
The channel activity of BEC1 was measured according to the method described in U.S. Pat. No. 6,326,168 utilizing the release of the ions of radioactive isotope 86Rb from BEC1 expressing cells as an indicator. Specifically, when BEC1 expressing cells which had taken in 86Rb ions were stimulated with 100 mM KCl, the radioactivity released from the cells was designated as the channel activity of BEC1. 86Rb ions were incorporated into cells by culturing (3 hours, 37° C.) BEC1 stably expressing cells in the presence of 86RbCl (0.5 μCi/ml), and the unincorporated 86Rb ions were removed by washing the cells three times with HEPES buffered physiological saline (pH 7.4, 2.5 mM KCl). […]
The Cherenkov radioactivities of the extracellular fluid and the cell lysate were respectively measured, and the sum was designated as the total radioactivity. The release amount of 86Rb ions was expressed as the percentage of the radioactivity of the extracellular fluid to the total radiation activity. […] The inhibitory action of the compound was indicated as the IC50 value determined from the inhibition % (that is, (control value—test value)×100/(control value—blank value)). […]

The target of data set [3] is T1, BEC1 potassium channel. The note with it: background statement; cited from earlier work.
Where [4] appears, read: oral, smallest dose giving significantly longer cumulative entry latency than solvent group (Dunnett's test).

Structures can show the parent of a compound that is named as a salt.

`Fc1ccc(Nc2nc(NCc3ncccn3)nc(Nc3ccc(F)cc3)n2)cc1` (as salt: HCl) [(2), N,N′-bis(4-fluorophenyl)-N″-(pyrimidin-2-ylmethyl)-1,3,5-triazine-2,4,6-triamine]: the melting point is 183 to 186 °C. Turning to `Fc1ccc(Nc2nc(NCc3ncccn3)nc(Nc3ccc(F)cc3)n2)cc1` [(2), N,N′-bis(4-fluorophenyl)-N″-(pyrimidin-2-ylmethyl)-1,3,5-triazine-2,4,6-triamine], the Minimum effective dose in data set [1] (setting [4]) is 0.03 mg/kg p.o. Moreover, in data set [1], the “Effect on cumulative entry latency of SHRSP” value (“Effect … of SHRSP” for short) is given as “prolonged the cumulative entry latency”. For `COc1ccc(Nc2nc(NCc3ncccn3)nc(Nc3ccc(F)cc3)n2)cc1` [(3), N-(4-fluorophenyl)-N′-(4-methoxyphenyl)-N″-(pyrimidin-2-ylmethyl)-1,3,5-triazine-2,4,6-triamine], in that order: 0.3 mg/kg p.o and “prolonged the cumulative entry latency”. On the same counts, the results for `Fc1ccc(Nc2nc(NCc3ccncn3)nc(Nc3ccc(F)cc3)n2)cc1` [(4), N,N′-bis(4-fluorophenyl)-N″-(pyrimidin-4-ylmethyl)-1,3,5-triazine-2,4,6-triamine] are 0.03 mg/kg p.o and “prolonged the cumulative entry latency”. In data set [1] (setting [4]), `Cl.Nc1nc(Nc2ccc(F)cc2)nc(N(Cc2ccnc(F)c2)c2ccccc2)n1` [(5), N-(4-fluorophenyl)-N′-[(2-fluoro-4-pyridyl)methyl]-N′-phenyl-1,3,5-triazine-2,4,6-triamine hydrochloride] had a Minimum effective dose of 3 mg/kg p.o. Also, the “Effect … of SHRSP” value in data set [1] is reported as “prolonged the cumulative entry latency”. In addition, the IC50 at BEC1 potassium channel [2] came to 85 nM. `Fc1ccc(Nc2nc(NCc3ncccn3)nc(Nc3ccccc3)n2)cc1` [Compound (1), N-(4-fluorophenyl)-N′-phenyl-N″-(pyrimidin-2-ylmethyl)-1,3,5-triazine-2,4,6-triamine] yielded a Minimum effective dose in data set [1] (setting [4]) of 0.1 mg/kg p.o. Moreover, the “Effect … of SHRSP” value in data set [1] is reported as “prolonged the cumulative entry latency”.

Consider `COC(=O)C(c1ccccc1)C1CCCCN1` (stereo not shown) [Methylphenidate, methylphenidate, reference compound], for which, in data set [1] (subcutaneous (sc), smallest dose giving significantly longer cumulative entry latency than solvent group), the Minimum effective dose is 0.1(sc) mg/kg. Moreover, in data set [1], the “Effect … of SHRSP” value is listed as “prolonged the cumulative entry latency”. In the case of `C=C[C@H]1C[N@@]2CC[C@H]1C[C@@H]2[C@@H](O)c1ccnc2ccc(OC)cc12` [quinidine], the “Inhibition of BEC1 potassium channels” value on BEC1 potassium channel [3] was “do not inhibit”. Turning to `CC[N+](CC)(CC)CC` [tetraethylammonium], at BEC1 potassium channel [3], the “Inhibition of BEC1 potassium channels” value is given as “do not inhibit”.
